Where a SMILES comes first, the peptide text is derived from it. [ ]: non-standard residue; d: D form. Dolaproine = CO[C@@H]([C@@H]1CCCN1)[C@@H](C)C(=O)O; Dil = CC[C@H](C)[C@H](NC)[C@@H](CC(=O)O)OC; NMeV = CN[C@H](C(=O)O)C(C)C
What was measured:
[1] = tested on: SKOV-3 ovarian cancer cell; assay: In vitro cytotoxicity of dolastatin derivatives (PrestoBlue cell viability); assay type: cell-based, Human; conditions: for IC50: concentration range wherein SKOV-3 cell viability falls to 50%, 96 h, measured range 1 nM-10 μM; for cytotoxicity compared to 1 (MMAF): SKOV-3, applied to cell culture medium; for cytotoxicity compared to 2 (monomethyldolastatin 10): SKOV-3
Protocol: Human ovarian cancer cell line SKOV-3 was from the ATCC (Manassas, Va., USA). The cells were grown according to the manufacturer's recommendations. Log phase cultures were collected and 5000 cells/well were seeded onto 96-well plates and incubated for 24 h. Serial dilutions of test molecules from a stock solution of 100 μM in 10% DMSO were made in cell culture medium, added to cells (maximum concentration of dimethylsulphoxide was 1%) and cultures were incubated further for 96 h. Cell viability was evaluated using PrestoBlue cell viability reagent (Life Technologies, Carlsbad, Calif., USA) according to the manufacturer's instructions. Cells were incubated for 2 h, and dye reduction was measured by absorbance at 570 nm. The compounds were assayed 1-2 times in triplicate.
Results of an exemplary assay are shown in FIG. 1, in which compound numbering is according to Example 1. The results are expressed in Table 1 as IC50 values of the analyzed derivatives.

[2] = Hydrophilicity by reverse-phase HPLC elution; assay type: physicochemical; conditions: C-18 reverse-phase column, eluted at lower ACN concentration
Source text: The products were purified by Äkta purifier 10 (GE Healthcare) HPLC instrument with Gemini-NX-5u C-18 reverse-phase column (4.6×250 mm, 110 Å (Phenomenex)) eluted with ACN gradient in aqueous ammonium hydrogen carbonate or aqueous trifluoroacetic acid.

Molecule | IC50 [1] [nM] | IC50 ([1]; Homo sapiens, SK-OV-3) [nM] | cytotoxicity compared to 1 (MMAF) [1] | further results
CC[C@H](C)[C@@H]([C@@H](CC(=O)N1CCC[C@H]1[C@H](OC)[C@@H](C)C(=O)N[C@@H](Cc1ccccc1)C(=O)O)OC)N(C)C(=O)[C@@H](NC(=O)[C@@H](NC)C(C)C)C(C)C [Compound 1, Monomethylauristatin F, reference compound] (H-[NMeV]V[Dil][Dolaproine]F-OH) | 100 to 1000 | – | – | –
CN[C@H](C(=O)N[C@H](C(=O)N(C)[C@@H](C(C)C)[C@@H](CC(=O)N1CCC[C@H]1[C@H](OC)[C@@H](C)C(=O)N[C@@H](Cc1ccccc1)c1nccs1)OC)C(C)C)C(C)C [Compound 2, monomethyldolastatin 10, reference compound] | < 1 | – | – | –
CCC(C)C(C(CC(=O)N1CCCC1C(OC)C(C)C(=O)NC(Cc1ccccc1)C(=O)O)OC)N(C)C(=O)C(NC(=O)C(C(C)C)N(C)CCC(O)C(O)C(O)CO)C(C)C [Compound 5, N-(2-deoxy-D-glucosyl)-MMAF] | – | 1000 | equally or only slightly less cytotoxic | hydrophilicity compared to MMAF (1) and N-(3-butynyl)-MMAF (6) [2]: more hydrophilic
C#CCCN(C)C(C(=O)NC(C(=O)N(C)C(C(C)CC)C(CC(=O)N1CCCC1C(OC)C(C)C(=O)NC(Cc1ccccc1)C(=O)O)OC)C(C)C)C(C)C (stereo not drawn) [Compound 6, N-(3-butynyl)-MMAF] | – | < 1 | more cytotoxic | –
CCC(C)C(C(CC(=O)N1CCCC1C(OC)C(C)C(=O)NC(Cc1ccccc1)C(=O)O)OC)N(C)C(=O)C(NC(=O)C(C(C)C)N(C)CC(O)C(O)C(O)C(O)COC1OC(CO)C(O)C(O)C1O)C(C)C [Compound 8, N-[6-O-(β-D-galactopyranosyl)-D-galactosyl]-MMAF] | – | 1000 to 10000 | less cytotoxic | –
CCC(C)C(C(CC(=O)N1CCCC1C(OC)C(C)C(=O)NC(Cc1ccccc1)C(=O)O)OC)N(C)C(=O)C(NC(=O)C(C(C)C)N(C)CC(O)C(O)C(OC1OC(CO)C(OC2OC(CO)C(O)C(O)C2O)C(O)C1O)C(O)CO)C(C)C [Compound 10, N-{4-O-[4-O-(α-D-galactopyranosyl)-β-D-galactopyranosyl]-D-glucosyl}-MMAF] | – | 1000 to 10000 | – | –
CCC(C)C(C(CC(=O)N1CCCC1C(OC)C(C)C(=O)NC(Cc1ccccc1)C(=O)O)OC)N(C)C(=O)C(NC(=O)C(C(C)C)N(C)CC(O)C(O)C(OC1OC(CO)C(O)C(OC2(C(=O)O)CC(O)C(NC(C)=O)C(C(O)C(O)CO)O2)C1O)C(O)CO)C(C)C [Compound 11, N-{4-O-[3-O-(α-N-acetylneuraminyl)-β-D-galactopyranosyl]-D-glucosyl}-MMAF] | > 10000 | – | less cytotoxic | –
CCC(C)C(C(CC(=O)N1CCCC1C(OC)C(C)C(=O)NC(Cc1ccccc1)c1nccs1)OC)N(C)C(=O)C(NC(=O)C(C(C)C)N(C)CC(O)C(O)C(O)C(O)CN=[N+]=[N-])C(C)C [Compound 13, N-(6-azido-6-deoxy-D-galactosyl)-dolastatin 10] | – | < 1 | – | cytotoxicity compared to 2 (monomethyldolastatin 10) [1]: equally or only slightly less cytotoxic
CCC(C)C(C(CC(=O)N1CCCC1C(OC)C(C)C(=O)NC(Cc1ccccc1)C(=O)O)OC)N(C)C(=O)C(NC(=O)C(C(C)C)N(C)C(=O)CCCC(=O)O)C(C)C (stereo not drawn) [Compound 14b, N-glutaryl-MMAF] | – | 100 to 1000 | – | cytotoxicity compared to 2 (monomethyldolastatin 10) [1]: equally or only slightly less cytotoxic
N-(6-O-propargyl-D-galactosyl)-MMAF [Compound 3] | 100 to 10000 | – | – | –
N-(6-azido-6-deoxy-D-galactosyl)-MMAF [Compound 4] | 100 to 1000 | – | – | –

— patent publication US10973922B2, “Glycoprotein-toxic payload conjugates” (GLYKOS FINLAND OY, priority 2013, dated 2021)
